What was measured:
[1] = target: T1, C3 (BV2 cell proteins) (Mus musculus, UniProt P01027); experiment: DARTS (Pronase), MS and Western blot; assay type: biochemical; details: 200 µM Tan I, 1 h; Pronase 30 min
T1 construct: endogenous C3 in BV2 (mouse microglial line) protein extract; detected by Western blot, 130-250 kDa band identified by MS

[2] = target: T1, C3 (BV2 cell proteins); experiment: CETSA in BV2 protein extract, Western blot; assay type: biochemical; details: Tan I 1 h; 40-65 °C, 3 min
[3] = target: T2, C3 (complement C3), RED-NHS labelled; experiment: microscale thermophoresis (Monolith NT.[…]); assay type: binding; details: 25 °C, PBS with 5% DMSO compound stocks, Tan I up to 25 µM
T2 construct: human purified C3 equally possible

T1 sequence (P01027 25-666): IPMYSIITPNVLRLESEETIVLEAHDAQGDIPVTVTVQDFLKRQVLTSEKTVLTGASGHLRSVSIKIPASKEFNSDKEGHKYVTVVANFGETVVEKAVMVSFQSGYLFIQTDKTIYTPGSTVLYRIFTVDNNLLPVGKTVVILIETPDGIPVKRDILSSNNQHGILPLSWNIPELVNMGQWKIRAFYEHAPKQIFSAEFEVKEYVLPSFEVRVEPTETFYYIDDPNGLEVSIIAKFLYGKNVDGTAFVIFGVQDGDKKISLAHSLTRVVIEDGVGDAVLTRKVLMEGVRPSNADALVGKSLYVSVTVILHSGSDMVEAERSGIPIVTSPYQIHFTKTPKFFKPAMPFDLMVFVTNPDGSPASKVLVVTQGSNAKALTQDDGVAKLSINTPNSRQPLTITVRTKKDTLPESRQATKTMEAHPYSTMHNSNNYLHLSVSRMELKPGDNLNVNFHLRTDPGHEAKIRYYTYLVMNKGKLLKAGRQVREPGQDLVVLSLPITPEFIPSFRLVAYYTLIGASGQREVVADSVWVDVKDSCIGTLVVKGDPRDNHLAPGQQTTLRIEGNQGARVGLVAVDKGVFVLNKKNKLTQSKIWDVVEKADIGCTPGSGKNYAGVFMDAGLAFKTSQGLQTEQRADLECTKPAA
T1 sequence (P01027 671-1663): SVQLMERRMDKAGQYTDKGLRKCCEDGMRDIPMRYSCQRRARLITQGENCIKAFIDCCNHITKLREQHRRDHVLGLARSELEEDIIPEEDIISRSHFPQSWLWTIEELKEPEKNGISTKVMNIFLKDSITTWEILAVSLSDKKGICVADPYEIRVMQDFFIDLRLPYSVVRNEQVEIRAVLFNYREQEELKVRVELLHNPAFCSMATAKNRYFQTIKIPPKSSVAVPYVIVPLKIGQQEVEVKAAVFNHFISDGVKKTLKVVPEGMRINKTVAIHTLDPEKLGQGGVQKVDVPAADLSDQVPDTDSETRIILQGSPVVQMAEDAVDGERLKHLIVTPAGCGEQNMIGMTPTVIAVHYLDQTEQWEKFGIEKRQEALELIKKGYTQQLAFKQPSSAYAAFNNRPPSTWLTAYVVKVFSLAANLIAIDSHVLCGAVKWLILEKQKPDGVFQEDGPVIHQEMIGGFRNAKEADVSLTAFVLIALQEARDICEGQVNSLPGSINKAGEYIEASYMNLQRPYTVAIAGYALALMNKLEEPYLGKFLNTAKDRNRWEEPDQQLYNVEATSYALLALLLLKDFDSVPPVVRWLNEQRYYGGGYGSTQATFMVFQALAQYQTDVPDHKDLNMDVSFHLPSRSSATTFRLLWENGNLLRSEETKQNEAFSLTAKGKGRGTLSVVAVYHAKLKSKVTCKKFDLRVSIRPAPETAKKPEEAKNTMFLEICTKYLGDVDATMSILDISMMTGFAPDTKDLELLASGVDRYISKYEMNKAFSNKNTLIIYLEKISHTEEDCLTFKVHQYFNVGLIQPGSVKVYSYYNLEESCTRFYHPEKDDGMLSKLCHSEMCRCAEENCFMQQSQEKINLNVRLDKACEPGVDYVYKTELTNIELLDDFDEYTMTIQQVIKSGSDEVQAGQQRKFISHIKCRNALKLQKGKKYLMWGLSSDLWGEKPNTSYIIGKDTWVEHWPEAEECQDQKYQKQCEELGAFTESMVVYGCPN

Kd [3]: 3.75 ± 3.31 µM
SMILES: Cc1coc2c1C(=O)C(=O)c1c-2ccc2c(C)cccc12 [Tan I]
protection from proteolysis (DARTS) [1]: Tan I protected C3 from proteolytic degradation | thermal stabilisation (CETSA) [2]: Tan I significantly enhances the thermal stability of C3 in a certain temperature range

From article PMC12374583, “Targeting complement C3 with Tanshinone I decreases microglia-mediated synaptic engulfment to exert antidepressant effects” (Theranostics, 2025)
